This note sets out measurements from US12331068B2, “Compositions and methods for inhibiting CD73” (Peloton Therapeutics, Inc., priority 2018, dated 2025).

Assay [1] has as its target T1, CD73 on U138 human neuroglioma cells (Homo sapiens, UniProt P21589).
T1 construct: U138 cells were obtained from ATCC and cultured in DMEM with 10% FBS; host or cells: U138 human neuroglioma cells
T1 sequence (P21589 27-549): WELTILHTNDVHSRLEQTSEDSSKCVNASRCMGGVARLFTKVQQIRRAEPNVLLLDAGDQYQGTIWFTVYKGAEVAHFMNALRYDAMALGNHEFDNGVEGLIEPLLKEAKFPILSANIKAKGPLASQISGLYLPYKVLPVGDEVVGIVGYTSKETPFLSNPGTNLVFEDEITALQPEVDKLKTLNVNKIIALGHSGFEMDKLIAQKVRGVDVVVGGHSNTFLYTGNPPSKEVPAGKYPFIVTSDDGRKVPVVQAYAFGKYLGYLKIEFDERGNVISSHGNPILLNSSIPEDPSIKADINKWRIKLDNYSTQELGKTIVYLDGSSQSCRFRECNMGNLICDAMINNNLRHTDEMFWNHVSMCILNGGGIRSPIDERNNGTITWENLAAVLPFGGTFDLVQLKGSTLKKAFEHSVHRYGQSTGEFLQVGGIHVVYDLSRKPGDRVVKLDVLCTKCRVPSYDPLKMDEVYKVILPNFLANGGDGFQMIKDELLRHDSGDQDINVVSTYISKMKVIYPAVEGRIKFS
Description: CD73 Cell-Based Assay (inorganic phosphate from AMP, malachite green). Conditions: AMP substrate, 2 hours at 37° C., read-out: CD73 Cell-Based assay IC50. In outline: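 U138 cells, seeded the day before at 2500 per well, were washed and given AMP substrate (200 μM in the added mixture, before dilution into the buffer) together with compound. After 2 h at 37 °C in 5% CO2, inorganic phosphate in the supernatant was measured with malachite green.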

Another assay addresses T2, Human CD73 (Homo sapiens, UniProt P21589).
T2 construct: purchased R&D Systems; host or cells: CHO cells
T2 sequence (P21589 27-549): T1 sequence (P21589 27-549)
In words: CD73 Enzyme Assay (EnzChek PNP/MESG kinetic readout of AMP hydrolysis). Format: biochemical. The note with it: 0.25 nM hCD73, 25 μM AMP; read-out: CD73 Enzyme Assay IC50. In outline:
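Compounds tested as 15-point, 3-fold dilution series (300 μM to 0.0002 μM) in DMSO. Kinetic absorbance at 360 nm read every minute for 10–20 min, initial velocity taken from the linear portion.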

As for `C[C@H](Nc1c(C#N)c(Cl)nc2c1ncn2[C@@H]1O[C@H](COP(=O)(O)CP(=O)(O)O)[C@@H](O)[C@H]1O)c1ccc(F)cn1` [Compound 240], the IC50 (in assay [1]; on Human CD73) was under 10 nM each time.
Turning to `N#Cc1c(Cl)nc2c(ccn2[C@@H]2O[C@H](CS(=O)(=O)CP(=O)(O)O)[C@@H](O)[C@@H]2F)c1NC1CC(F)(F)C1` [Compound 169], the IC50 (in assay [1]; on Human CD73) was under 10 nM in each case.
`N#Cc1cnc2c(ccn2[C@@H]2O[C@H](COP(=O)(O)CP(=O)(O)O)[C@@H](O)[C@H]2O)c1NC1CCCC1` [Compound 48]: the IC50 (in assay [1]; at Human CD73) was under 10 nM each time.
In the case of `N#Cc1nc2c(ccn2[C@@H]2O[C@H](COCP(=O)(O)O)[C@@H](O)[C@H]2O)c(N2CCC(F)(F)C2)c1C#N` [Compound 105], the IC50 (in assay [1]; on Human CD73) was under 10 nM throughout.
As for `N#Cc1c(Cl)nc2c(cnn2[C@@H]2O[C@H](CS(=O)(=O)CP(=O)(O)O)[C@@H](O)[C@H]2O)c1N1CCC(F)(F)C1` [Compound 119, (((((2S,3S,4R,5R)-5-(6-chloro-5-cyano-4-(3,3-difluoropyrrolidin-1-yl)-1H-pyrazolo[3,4-b]pyridin-1-yl)-3,4-dihydroxytetrahydrofuran-2-yl)methyl)sulfonyl)methyl)phosphonic acid], the IC50 in assay [1] was under 10 nM; at Human CD73, 10 to 100 nM.
Regarding `N#Cc1c(Cl)nc2c(ncn2[C@@H]2O[C@H](COCP(=O)(O)O)[C@@H](O)[C@H]2O)c1NC1CCCC1` [Compound 55, ((((2R,3S,4R,5R)-5-(5-chloro-6-cyano-7-(cyclopentylamino)-3H-imidazo[4,5-b]pyridin-3-yl)-3,4-dihydroxytetrahydrofuran-2-yl)methoxy)methyl)phosphonic acid], the half-inhibitory concentration (IC50) (in assay [1]; at Human CD73) was under 10 nM in each case.
Consider `N#Cc1c(Cl)nc2c(cnn2[C@@H]2O[C@H](COCP(=O)(O)O)[C@@H](O)[C@H]2O)c1N1CC2CC2C1` (some centres unmarked) [Compound 71], for which the IC50 (in assay [1]; at Human CD73) was under 10 nM in each case.
For `N#Cc1c(Cl)nc2c(cnn2[C@@H]2O[C@H](COCP(=O)(O)O)[C@@H](O)[C@H]2O)c1N1C[C@@H](F)[C@@H](F)C1` [Compound 91, ((((2R,3S,4R,5R)-5-(6-chloro-5-cyano-4-((3S,4R)-3,4-difluoropyrrolidin-1-yl)-1H-pyrazolo[3,4-b]pyridin-1-yl)-3,4-dihydroxytetrahydrofuran-2-yl)methoxy)methyl)phosphonic acid], the IC50 (in assay [1]; at Human CD73) was under 10 nM throughout.
Consider `C[C@@H](Nc1c(C#N)c(Cl)nc2c1ccn2[C@@H]1O[C@H](COP(=O)(O)CP(=O)(O)O)[C@@H](O)[C@@H]1F)c1ccc(C#N)cc1` [Compound 239], for which the IC50 (in assay [1]; on Human CD73) was under 10 nM each time.
For the compound `C[C@H](Nc1c(C#N)c(Cl)nc2c1cnn2[C@@H]1O[C@H](CS(=O)(=O)CP(=O)(O)O)[C@@H](O)[C@H]1O)c1cccc(C#N)c1` [Compound 200], the IC50 (in assay [1]; at Human CD73) was under 10 nM each time.
For the compound `C[C@@H](Nc1c(C#N)c(Cl)nc2c1ccn2[C@@H]1O[C@H](CS(=O)(=O)CP(=O)(O)O)[C@@H](O)[C@H]1O)c1ccc(C#N)cc1` [Compound 178], the IC50 (in assay [1]; at Human CD73) was under 10 nM throughout.
For `C[C@@H](Nc1c(C#N)c(Cl)nc2c1cnn2[C@@H]1O[C@H](COP(=O)(O)CP(=O)(O)O)[C@@H](O)[C@H]1O)c1ccc(C#N)cc1` [Compound 249], the IC50 (in assay [1]; at Human CD73) was under 10 nM throughout.
`C[C@@H](Nc1c(C#N)c(Cl)nc2c1ncn2[C@@H]1O[C@H](COP(=O)(O)CP(=O)(O)O)[C@@H](O)[C@H]1O)c1ccccc1F` [Compound 208, (((((2R,3S,4R,5R)-5-(5-chloro-6-cyano-7-(((R)-1-(2-fluorophenyl)ethyl)amino)-3H-imidazo[4,5-b]pyridin-3-yl)-3,4-dihydroxytetrahydrofuran-2-yl)methoxy)(hydroxy)phosphoryl)methyl)phosphonic acid]: the IC50 (in assay [1]; on Human CD73) was under 10 nM each time.
Consider `N#Cc1c(Cl)nc2c(ncn2[C@@H]2O[C@H](COCP(=O)(O)O)[C@@H](O)[C@H]2O)c1N1CC[C@@H](F)C1` [Compound 83], for which the IC50 (in assay [1]; on Human CD73) was under 10 nM throughout.
On to `N#Cc1c(Cl)nc2c(ccn2[C@@H]2O[C@H](COP(=O)(O)CP(=O)(O)O)[C@@H](O)[C@H]2O)c1NC1CC(F)(F)C1` [Compound 47], for which the IC50 (in assay [1]; on Human CD73) was under 10 nM in each case.
Regarding `N#Cc1c(Cl)nc2c(ncn2[C@@H]2O[C@H](CS(=O)(=O)CP(=O)(O)O)[C@@H](O)[C@H]2O)c1NC1CC(F)(F)C1` [Compound 113, (((((2S,3S,4R,5R)-5-(5-chloro-6-cyano-7-((3,3-difluorocyclobutyl)amino)-3H-imidazo[4,5-b]pyridin-3-yl)-3,4-dihydroxytetrahydrofuran-2-yl)methyl)sulfonyl)methyl)phosphonic acid], the IC50 (in assay [1]; on Human CD73) was under 10 nM throughout.
Regarding `CN(c1c(C#N)c(Cl)nc2c1ccn2[C@@H]1O[C@H](COCP(=O)(O)O)[C@@H](O)[C@H]1O)C1CC(F)(F)C1` [Compound 153], the values for the IC50 (in assay [1]; on Human CD73) were 10 to 100 nM and under 10 nM, respectively.
With `N#Cc1nc2c(ccn2[C@@H]2O[C@H](COP(=O)(O)CP(=O)(O)O)[C@@H](O)[C@H]2O)c(NC2CC3(CC3)C2)c1Cl` [Compound 206], the 50% inhibitory concentration (IC50) (in assay [1]; at Human CD73) was under 10 nM in each case.
For the compound `N#Cc1c(Cl)nc2c(ccn2[C@@H]2O[C@H](CO[C@H](CO)P(=O)(O)O)[C@@H](O)[C@H]2O)c1N1CC2CCCC2C1` (stereo partly drawn) [Compound 50, ((1S)-1-(((2R,3S,4R,5R)-5-(6-chloro-5-cyano-4-(hexahydrocyclopenta[c]pyrrol-2 (1H)-yl)-1H-pyrrolo[2,3-b]pyridin-1-yl)-3,4-dihydroxytetrahydrofuran-2-yl)methoxy)-2-hydroxyethyl)phosphonic acid], the half-inhibitory concentration (IC50) (in assay [1]; at Human CD73) was under 10 nM each time.
Regarding `N#Cc1nc2c(ccn2[C@@H]2O[C@H](COCP(=O)(O)O)[C@@H](O)[C@H]2O)c(NC2CCCC2)c1C#N` [Compound 104], the IC50 (in assay [1]; on Human CD73) was under 10 nM throughout.
Consider `C[C@H](Nc1c(C#N)c(Cl)nc2c1ccn2[C@@H]1O[C@H](COP(=O)(O)CP(=O)(O)O)[C@@H](O)[C@H]1O)c1ccc(C#N)cc1` [Compound 223], for which the IC50 (in assay [1]; at Human CD73) was under 10 nM throughout.
In the case of `N#Cc1c(Cl)nc2c(ncn2[C@@H]2O[C@H](CS(=O)(=O)CP(=O)(O)O)[C@@H](O)[C@H]2O)c1NC1CC(F)C1` (some centres unmarked) [Compound 117], the IC50 (in assay [1]; on Human CD73) was under 10 nM in each case.
As to `N#Cc1c(Cl)nc2c(cnn2[C@@H]2O[C@H](CS(=O)(=O)CP(=O)(O)O)[C@@H](O)[C@H]2O)c1NC1CC2CC2C1` (some centres unmarked) [Compound 128], the IC50 (in assay [1]; at Human CD73) was under 10 nM each time.
For `N#Cc1nc2c(ccn2[C@@H]2O[C@H](COCP(=O)(O)O)[C@@H](O)[C@H]2O)c(NC2CCCC2)c1Cl` [Compound 101], the IC50 (in assay [1]; on Human CD73) was under 10 nM throughout.
As to `N#Cc1c(Cl)nc2c(ncn2[C@@H]2O[C@H](COCP(=O)(O)O)[C@@H](O)[C@H]2O)c1NC1CC2CC2C1` (some centres unmarked) [Compound 56], the half-inhibitory concentration (IC50) (in assay [1]; at Human CD73) was under 10 nM throughout.

As a reminder, the IC50 is the point on the concentration scale where inhibition reaches its midpoint.
